These results are taken from article doi:10.64898/2025.12.09.693172, “Agonism of mosquito and human transient receptor potential ankyrin 1 (TRPA1) channels by the natural drimane sesquiterpene cinnamodial” (bioRxiv, 2025).

One may read the pEC50 as −log10 of the EC50, conventionally taken in molar units. Read a high pEC50 as a low EC50.

pEC50: −log10 of the molar value.

Test [1] deals with T1, HsTRPA1 (Homo sapiens, UniProt O75762).
T1 construct: gene TRPA1; cDNA construct from Saito and Tominaga, cRNA injected into Xenopus laevis oocytes; UniProt id printed for the modelled HsTRPA1 (residues 401-1119)
The experiment in a line: two-electrode voltage clamp, Xenopus oocytes. Type of test: cell-based. On the technique in general: In two-electrode clamp one electrode senses voltage and the other passes current.

The target of test [2] is T1, HsTRPA1. Kind of test: two-electrode voltage clamp, Xenopus oocytes. Type of test: cell-based. Conditions: agonist, ND96 pH 7.5.

T1 sequence (O75762 whole entry, the tested form may be a part): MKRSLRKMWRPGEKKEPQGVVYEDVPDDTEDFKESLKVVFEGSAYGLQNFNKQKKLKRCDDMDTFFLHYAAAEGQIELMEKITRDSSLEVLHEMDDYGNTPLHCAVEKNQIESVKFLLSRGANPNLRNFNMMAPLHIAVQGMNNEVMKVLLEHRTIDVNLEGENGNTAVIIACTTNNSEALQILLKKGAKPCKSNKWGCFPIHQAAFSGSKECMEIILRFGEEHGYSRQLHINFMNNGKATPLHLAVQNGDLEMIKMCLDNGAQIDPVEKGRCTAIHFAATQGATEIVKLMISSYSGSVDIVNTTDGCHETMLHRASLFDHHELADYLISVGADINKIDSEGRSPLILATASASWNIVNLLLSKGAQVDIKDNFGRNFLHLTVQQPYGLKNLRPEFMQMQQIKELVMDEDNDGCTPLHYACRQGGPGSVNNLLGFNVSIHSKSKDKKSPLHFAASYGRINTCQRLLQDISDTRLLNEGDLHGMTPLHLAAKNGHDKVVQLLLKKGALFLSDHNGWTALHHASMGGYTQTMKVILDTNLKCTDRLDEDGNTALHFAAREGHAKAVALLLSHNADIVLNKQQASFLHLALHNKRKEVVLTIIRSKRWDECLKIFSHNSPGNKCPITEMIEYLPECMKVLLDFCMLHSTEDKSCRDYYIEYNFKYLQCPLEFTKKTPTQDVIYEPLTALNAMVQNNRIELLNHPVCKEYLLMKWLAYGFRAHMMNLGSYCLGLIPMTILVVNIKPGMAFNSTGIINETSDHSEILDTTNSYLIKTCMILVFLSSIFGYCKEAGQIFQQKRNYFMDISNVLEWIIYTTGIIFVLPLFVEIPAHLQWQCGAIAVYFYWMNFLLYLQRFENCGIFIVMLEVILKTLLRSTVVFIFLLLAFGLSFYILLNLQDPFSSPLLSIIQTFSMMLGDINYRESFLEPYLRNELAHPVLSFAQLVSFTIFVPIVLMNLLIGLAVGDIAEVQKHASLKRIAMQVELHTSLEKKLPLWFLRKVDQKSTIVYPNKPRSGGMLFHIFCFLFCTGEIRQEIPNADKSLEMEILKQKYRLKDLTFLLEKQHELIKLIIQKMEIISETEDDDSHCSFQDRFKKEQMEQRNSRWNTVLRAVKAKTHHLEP

For `CC(=O)O[C@@H]1C=C(C=O)[C@](O)(C=O)[C@@]2(C)CCCC(C)(C)[C@H]12` [CDIAL], on HsTRPA1 [1], the pEC50 is 5.65.

For `CC1=COC(=O)C2C(C)CCC12` (stereo not drawn) [nepetalactone], the “% by which ΔIm at 1000 μM is lower than that of 10 μM CDIAL” value at HsTRPA1 [2] was found to be 98.8 ± 0.46%.

On HsTRPA1 [1], `COCCCN(C(=O)CCl)c1nc(-c2ccc(OC)cc2)cs1` [JT010] showed a negative logarithm of the EC50 (pEC50) of 6.10.
